Here are results for three compounds from paper doi:10.1101/2025.03.27.645620v1 (biorxiv, 2025).

Where two headings read alike, the source gives them in different places.

In one experiment the test system is hSTING AQ. Put plainly: cells. Also on record: species or system THP1. Particulars: Homo sapiens, THP-1, 20 h, read-out: SB 11285 EC50 (µM).
The next experiment deals with mSTING. Nature of the experiment: cells. Also on record: species or system THP1. The settings on record: Homo sapiens, THP-1, 20 h, read-out: SB 11285 EC50 (µM).
A further experiment relates to murine splenocytes. Put plainly: cells. Particulars: Mus musculus, Splenocyte, 24 h. Also on record: species or system mouse splenocytes.
The subject of another experiment is human PBMCs. Nature of the experiment: cells. The settings on record: PBMC, 24 h.
The subject of the next experiment is hSTING-WT. Nature of the experiment: cells. Particulars: Homo sapiens, THP-1, 20 h, read-out: SB 11285 EC50 (µM). Also on record: species or system THP1.
The target of the next experiment is WT-hSTING-CTT (Homo sapiens, UniProt Q86WV6, H232R). Nature of the experiment: surface plasmon resonance. The settings on record: labelled compound; biotin-tagged SB […] used. The format is binding.
Chain of WT-hSTING-CTT (Q86WV6 139-379 H232R): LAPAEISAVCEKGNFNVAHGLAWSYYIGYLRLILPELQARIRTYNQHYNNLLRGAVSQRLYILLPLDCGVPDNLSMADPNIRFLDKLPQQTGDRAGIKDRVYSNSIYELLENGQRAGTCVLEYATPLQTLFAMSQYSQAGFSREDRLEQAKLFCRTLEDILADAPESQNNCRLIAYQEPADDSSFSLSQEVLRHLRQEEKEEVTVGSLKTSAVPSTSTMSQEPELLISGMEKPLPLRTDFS

As usually defined, the EC50 is the concentration at which the effect is half-maximal. With `NC1CC2CCC(C1)C2O` (mixture of isomers) [SB 11285], the EC50 in the experiment on hSTING AQ came to 0.43 µM; with mSTING, 0.15 µM; with murine splenocytes (read-out: SB 11285 EC50 (μM), IFN-α), 0.2 ± 0.1 µM; with murine splenocytes (read-out: SB 11285 EC50 (μM), IL-18), 0.02 ± 0.02 µM; in the experiment with murine splenocytes (read-out: SB 11285 EC50 (μM), IL-31), 0.006 ± 0.003 µM; with murine splenocytes (read-out: SB 11285 EC50 (μM), IP-10), 0.03 ± 0.02 µM. Further, the EC50 with murine splenocytes (read-out: SB 11285 EC50 (μM), TNF-α) worked out at 0.04 ± 0.06 µM; in the experiment with human PBMCs (read-out: SB 11285 EC50(μM), GM-CSF) it was 0.4 ± 0.3 µM; in the experiment on human PBMCs (read-out: SB 11285 EC50(μM), IFN-α), 0.9 ± 0.7 µM; in the experiment on human PBMCs (read-out: SB 11285 EC50(μM), IFN-β) it was 0.3 ± 0.2 µM; in the experiment with human PBMCs (read-out: SB 11285 EC50(μM), IFN-γ) it was 1 ± 0.4 µM; in the experiment with human PBMCs (read-out: SB 11285 EC50(μM), IL-10) it was 0.03 ± 0.03 µM. Further, the EC50 in the experiment with human PBMCs (read-out: SB 11285 EC50(μM), IL-12p70) is 0.8 ± 0.3 µM; in the experiment with human PBMCs (read-out: SB 11285 EC50(μM), IL-18), 0.7 ± 0.1 µM; in the experiment with human PBMCs (read-out: SB 11285 EC50(μM), MIP-1α), 0.05 ± 0.04 µM; in the experiment on human PBMCs (read-out: SB 11285 EC50(μM), MIP-1β), 0.06 ± 0.09 µM; in the experiment on human PBMCs (read-out: SB 11285 EC50(μM), RANTES), 0.08 ± 0.06 µM; in the experiment on hSTING-WT, 0.008 µM.

Consider `Nc1ncnc2c1ncn2[C@@H]1O[C@@H]2COP(O)(=S)O[C@@H]3[C@H](O)[C@@H](COP(O)(=S)O[C@H]2[C@H]1O)O[C@H]3n1cnc2c(N)ncnc21` (stereo partly shown) [ADU-S100], for which the EC50 in the experiment on murine splenocytes (read-out: EC50 (μM), CXCL1) was 1.6 ± 0.9 µM; in the experiment with murine splenocytes (read-out: EC50 (μM), IFN-α), > 10 µM; in the experiment on murine splenocytes (read-out: EC50 (μM), IL-6), 1.7 ± 1.7 µM; in the experiment with murine splenocytes (read-out: EC50 (μM), IL-17A), 0.3 ± 0.2 µM; with murine splenocytes (read-out: EC50 (μM), IL-18), 0.6 ± 0.4 µM; with murine splenocytes (read-out: EC50 (μM), MIP-1α), 0.5 ± 0.4 µM. For the same compound, the EC50 is 0.7 ± 0.3 µM in the experiment with murine splenocytes (read-out: EC50 (μM), MIP-1β); 0.1 ± 0.1 µM in the experiment with murine splenocytes (read-out: EC50 (μM), RANTES); 1.4 ± 0.5 µM in the experiment on murine splenocytes (read-out: EC50 (μM), TNF-α); 2.9 ± 0.4 µM with human PBMCs (read-out: EC50(μM), GM-CSF); 2.6 ± 2.9 µM in the experiment with human PBMCs (read-out: EC50(μM), IFN-α); > 10 µM with human PBMCs (read-out: EC50(μM), IFN-β). For the same compound, the EC50 came to 2.3 ± 0.6 µM in the experiment with human PBMCs (read-out: EC50(μM), IL-6); 0.8 ± 0.6 µM with human PBMCs (read-out: EC50(μM), IL-10); 0.4 ± 0.3 µM in the experiment with human PBMCs (read-out: EC50(μM), IP-10); 1.1 ± 0.6 µM in the experiment with human PBMCs (read-out: EC50(μM), MIP-1α); 1.2 ± 0.8 µM in the experiment with human PBMCs (read-out: EC50(μM), MIP-1β); 0.7 ± 0.5 µM in the experiment with human PBMCs (read-out: EC50(μM), RANTES).

Broadly, the Kd is the concentration at which binding is half-saturated. Lower therefore signals higher affinity. For the compound biotin-tagged SB 11285, the Kd at WT-hSTING-CTT is ~122 nM.
